Assays:
IL-12 receptor = test: Steady state 125I-IL-12 binding to human cells (Scatchard)
[1] = target: T1, detergent solubilized IL-12R from Kit 225/K6 cells (Homo sapiens, UniProt P42701); test: 125I-IL-12 binding to detergent solubilized IL-12R immunoprecipitated by immobilized 2*4E6; conditions: proteins immunoprecipitated by immobilized 2*4E6 from solubilized K6 cell extracts; read-out: apparent affinity of 125I-IL-12, single site
T1 construct: were solubilized with 8 mM CHAPS extraction buffer; endogenous in cells; host or cells: Kit 225/K6 cells, CHAPS extract
Procedure: FIG. 8A: Kit 225/K6 cells (1.5×10^8 cells/ml) were solubilized with 8 mM CHAPS extraction buffer and the cell extract (0.2 ml) was immunoprecipitated for 16 hrs at 4° C. with mAb 2*4E6 immobilized on goat anti-mouse IgG coupled to agarose as discussed below. Following this incubation, the beads were pelleted, washed and resuspended in IP buffer containing ^125 I-IL-12 at concentrations ranging from 7 pM to […]. The IL-12R immobilized on the 2*4E6 coated beads was incubated with ^125 I-IL-12 for 2 hrs at RT and IL-12R bound radioactivity was determined in the presence of 50 nM unlabelled IL-12.
To confirm that the antibodies identified by the immunoprecipitation assay were specific for IL-12R, an immunoprecipitation/soluble IL-12R binding assay was developed. […] Following this incubation, the beads were pelleted, washed twice with IP buffer and the bound radioactivity determined in a gamma counter. Nonspecific binding was determined by inclusion of 70 nM unlabeled human IL-12 in the assay. Solubilized IL-12R binding data were analyzed according to the method of Scatchard, (Assn. N.Y. Acad. Sci., 51, 660 (1949)) by using the nonlinear regression programs EBDA and Ligand as adapted for the IBM PC by McPherson, from Elsevier-BIOSOFT.

[2] = target: T2, human recombinant IL-12 receptor β subunit (Homo sapiens, UniProt P42701); test: Equilibrium binding of 125I-IL-12 and 125I-2*4E6 to recombinant IL-12R expressed in COS cells
T2 construct: expressed in transfected cells; host or cells: COS / COS-7 cells
Procedure: COS cells (4-5×10^7) were transfected by electroporation with 25 μg of plasmid DNA expressing recombinant human IL-12R (Chua, et al., J. Immunol., 153:128 (1994)) in a BioRad Gene Pulser (250 μF, 250 volts) according to the manufacturer's protocol. The cells were plated in a 600 cm^2 culture plate, harvested after 72 hours by scraping, washed and resuspended in binding buffer. Transfected cells (8×10^4) were incubated with increasing concentrations of ^125 I-labeled 2*4E6 or IL-12 at room temperature for 2 hrs. Cell bound radioactivity was separated from free ^125 I-labeled 2*4E6 or IL-12 as described above.

IL-12R [3] = target: T3, IL-12R (Homo sapiens, UniProt P42701); test: Inhibition of 125I-2*4E6 binding to cells by unlabeled competitor; design: endogenous in cells; host or cells: Kit 225/K6 cells; conditions: PHA-activated PBMCs (FIG. 6)
Text: The data are expressed as the amount of ^125 I-2*4E6 bound [CPM BOUND (Percent)] to the cells in the presence of the indicated concentrations of unlabeled antibody or IL-12 when compared with the total specific binding in the absence of unlabeled competitor.

IL-12R [4] = target: T3, IL-12R; test: Steady state 125I-IL-12 binding to human cells (Scatchard); design: human cells that naturally express IL-12R; endogenous in cells; receptor-negative PBMC, MRC-5, HL-60; conditions: PHA-activated PBMCs, Kit-225 and Kit 225/K6 cells; third (low affinity) site

- Kd [1]: 0.188 nM
- Kd ([2]; rIL-12R β-expressing COS cells, read-out: apparent affinity of 125I-IL-12, single binding site): 2 to 6 nM
- 125I-IL-12 sites/cell ([2]; rIL-12R-expressing COS cells): approximately 150,000 sites/cell
- block of 125I-2*4E6 binding by unlabeled competitor (IL-12R [3]): does not block
- Kd (IL-12R [4]): 2 to 6 nM
Substance: IL-12: 75-kDa heterodimeric cytokine of disulfide-bonded 40-kDa and 35-kDa subunits
- IL-12 BINDING (KD, Sites/cell) (IL-12 receptor; HL-60): none detectable
- IL-12 BINDING (KD, Sites/cell) (IL-12 receptor; MRC-5): none detectable
- IL-12 BINDING (KD, Sites/cell) (IL-12 receptor; RAJI cells): none detectable
- Kd (IL-12 receptor; YT cells, 2 sites): 0.109 nM
- IL-12 BINDING (KD, Sites/cell) (IL-12 receptor; non-activated human PBMC): none detected
